According to patent publication US20240199542A1, “SUBSTITUTED PYRROLIDIN-2-ONES, SALTS THEREOF AND THEIR USE AS HERBICIDALLY ACTIVE SUBSTANCES” (Bayer Aktiengesellschaft, priority 2021, published 2024):

Key:
Assay type in all cases: in vivo
[1] = tested on: Alopecurus myosuroides (ALOMY); assay: Herbicidal pre-emergence action; settings: graded after ca. 3 weeks
Procedure, shortened: (§1)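 Percent herbicidal effect, from 0% (as untreated) to 100% (plants dead), was graded visually about 3 weeks after treatment under optimal greenhouse conditions. Compounds, as WP or EC with 0.5% additive in 600 l water/ha at up to 1280 g/ha, were applied to covering soil over freshly sown seeds in sandy loam.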

Avena fatua (AVEFA) [2] = assay: Herbicidal pre-emergence action; settings: graded after ca. 3 weeks
Procedure, shortened: as §1

[3] = tested on: Cyperus esculentus (CYPES); assay: Herbicidal pre-emergence action; settings: 1280 g/ha, graded after ca. 3 weeks
Procedure, shortened: as §1

[4] = tested on: Echinochloa crus-galli (ECHCG); assay: Herbicidal pre-emergence action; settings: graded after ca. 3 weeks
Procedure, shortened: as §1

[5] = tested on: Lolium multiflorum (LOLMU); assay: Herbicidal pre-emergence action; settings: 1280 g/ha, graded after ca. 3 weeks
Procedure, shortened: as §1

[6] = tested on: Polygonum convolvulus (POLCO); assay: Herbicidal pre-emergence action; settings: 1280 g/ha, graded after ca. 3 weeks
Procedure, shortened: as §1

[7] = tested on: Alopecurus myosuroides (ALOMY); assay: Herbicidal post-emergence action; settings: assessed after ca. 3 weeks
Procedure, shortened: (§2)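 Plants sprayed at single-leaf stage, 2–3 wk post-sowing; aq. suspension/emulsion of WP or EC, 0.5% additive, 600 l/ha; doses 1280 or 320 g/ha. Greenhouse ~3 wk, then visual % effect vs untreated (100% = dead).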

Avena fatua (AVEFA) [8] = assay: Herbicidal post-emergence action; settings: assessed after ca. 3 weeks
Procedure, shortened: as §2

[9] = tested on: Cyperus esculentus (CYPES); assay: Herbicidal post-emergence action; settings: 1280 g/ha, assessed after ca. 3 weeks
Procedure, shortened: as §2

[10] = tested on: Echinochloa crus-galli (ECHCG); assay: Herbicidal post-emergence action; settings: assessed after ca. 3 weeks
Procedure, shortened: as §2

[11] = tested on: Lolium multiflorum (LOLMU); assay: Herbicidal post-emergence action; settings: 1280 g/ha, assessed after ca. 3 weeks
Procedure, shortened: as §2

Setaria viridis (SETVI) [12] = assay: Herbicidal post-emergence action; settings: 1280 g/ha, assessed after ca. 3 weeks
Procedure, shortened: as §2

Setaria viridis (SETVI) [13] = assay: Herbicidal pre-emergence action; settings: graded after ca. 3 weeks
Procedure, shortened: as §1

[14] = tested on: Digitaria sanguinalis (DIGSA); assay: Herbicidal pre-emergence action; settings: 320 g/ha, graded after ca. 3 weeks
Procedure, shortened: as §1

Lolium rigidum (LOLRI) = assay: Herbicidal pre-emergence action; settings: 320 g/ha, graded after ca. 3 weeks
Procedure, shortened: as §1

Viola tricolor (VIOTR) = assay: Herbicidal pre-emergence action; settings: 320 g/ha, graded after ca. 3 weeks
Procedure, shortened: as §1

[15] = tested on: Digitaria sanguinalis (DIGSA); assay: Herbicidal post-emergence action; settings: 320 g/ha, assessed after ca. 3 weeks
Procedure, shortened: as §2

Brassica napus (BRSNW) [16] = assay: Pre-emergence effects on crop plants; settings: 320 g/ha, crop plant
Description: (§3) Seeds of mono- and dicotyledonous weed plants and crop plants were sown, in plastic or organic planting pots, in sandy loam and covered with soil. The compounds according to the invention, formulated in the form of wettable powders (WP) or as emulsifiable concentrates (EC), were applied to the surface of the covering soil as aqueous suspension or emulsion, with the addition of 0.5% of an additive, at an application rate of 600 1 of water/ha (converted).
(§4) Following treatment, the pots were placed in a greenhouse and kept under optimum growth conditions for the test plants. The visual grading of the damage to the test plants was carried out after ca. 3 weeks in comparison to untreated controls (herbicidal effect in percent (%): 100% effect=plants have died off, 0% effect=as control plants).
(§5) Tables C1 to C3 below show the effects of selected compounds of the general formula (I) according to table 1 on various crop plants and an application rate corresponding to 320 g/ha or below obtained by the experimental procedure mentioned above in biology section A.

Glycine max (GLXMA) [17] = assay: Pre-emergence effects on crop plants; settings: crop plant
Description: as §3, §4, §5

Zea Mays (ZEAMX) [18] = assay: Pre-emergence effects on crop plants; settings: crop plant
Description: as §3, §4, §5

Brassica napus (BRSNW) [19] = assay: Post-emergence effects on crop plants; settings: application rate 320 g/ha, crop plant Brassica napus (BRSNW)
Description: (§6) Seeds of mono- and dicotyledonous weed plants and crop plants were sown, in plastic or organic planting pots, in sandy loam, covered with soil and grown in a greenhouse under controlled growth conditions. 2 to 3 weeks after sowing, the test plants were sprayed in the single-leaf stage. The compounds according to the invention, formulated in form of wettable powders (WP) or as emulsifiable concentrates (EC), were sprayed onto the green plant parts as aqueous suspension or emulsion, with the addition of 0.5% of an additive, at an application rate of 600 1 of water/ha (converted). The test plants were placed in the greenhouse for ca. 3 weeks under optimum growth conditions, and then the effect of the preparations was assessed visually in comparison with untreated controls (herbicidal effect in percent (%): 100% effect=plants have died off, 0% effect=as control plants).
(§7) Tables D1 to D3 below show the effects of selected compounds of the general formula (I) according to table 1 on various crop plants and an application rate corresponding to 320 g/ha or below obtained by the experimental procedure mentioned above in biology section B.

Glycine max (GLXMA) [20] = assay: Post-emergence effects on crop plants; settings: 320 g/ha, crop plant
Description: as §6, §7

Zea Mays (ZEAMX) [21] = assay: Post-emergence effects on crop plants; settings: crop plant
Description: as §6, §7

[22] = tested on: Polygonum convolvulus (POLCO); assay: Herbicidal post-emergence action; settings: 1280 g/ha, assessed after ca. 3 weeks
Procedure, shortened: as §2

Veronica persica (VERPE) = assay: Herbicidal pre-emergence action; settings: 1280 g/ha, graded after ca. 3 weeks
Procedure, shortened: as §1

Row | Compound | Pre-emergence activity against ALOMY ([1]; 1280 g/ha) | Pre-emergence activity against AVEFA (Avena fatua (AVEFA) [2]; 1280 g/ha) | Pre-emergence activity against ECHCG ([4]; 1280 g/ha) | Pre-emergence activity against LOLMU [5] | Pre-emergence activity against POLCO [6] | Post-emergence activity against ALOMY ([7]; 1280 g/ha) | Post-emergence activity against AVEFA (Avena fatua (AVEFA) [8]; 1280 g/ha) | Post-emergence activity against CYPES [9] | Post-emergence activity against ECHCG ([10]; 1280 g/ha) | Post-emergence activity against LOLMU [11] | Post-emergence activity against SETVI (Setaria viridis (SETVI) [12]) | Pre-emergence activity against SETVI (Setaria viridis (SETVI) [13]; 1280 g/ha) | Pre-emergence activity against DIGSA [14] | pre-emergence activity against BRSNW (crop damage) (Brassica napus (BRSNW) [16]) | pre-emergence activity against ZEAMX (crop damage) (Zea Mays (ZEAMX) [18]; 320 g/ha) | post-emergence activity against BRSNW (Brassica napus (BRSNW) [19]) | post-emergence activity against GLXMA (crop damage) (Glycine max (GLXMA) [20]) | post-emergence activity against ZEAMX (crop damage) (Zea Mays (ZEAMX) [21]; 320 g/ha) | Pre-emergence activity against AVEFA (Avena fatua (AVEFA) [2]; 320 g/ha) | pre-emergence activity against GLXMA (crop damage) (Glycine max (GLXMA) [17]; 320 g/ha) | other results
1 | COCC(=O)CC(=O)CNC(=O)CC1CCC(=O)N1Cc1cccc(F)c1F (racemic) [Example I-006] | 90% | 100% | 90% | 90% | 90% | 90% | 100% | 80% | 100% | 80% | 80% |  |  |  |  |  |  |  |  |  | Pre-emergence activity against CYPES [3]: 90%
2 | CS(=O)(=O)NC(=O)CC1CCC(=O)N1Cc1cccc(F)c1F (racemic) [Example I-012] | 90% | 90% | 80% | 90% |  | 80% | 90% | 80% | 90% | 90% | 90% | 90% |  |  |  |  |  |  |  |  | Pre-emergence activity against CYPES [3]: 80%
3 | O=C(O)C1CCCN1C(=O)CC1CCC(=O)N1Cc1cccc(F)c1F (racemic) [Example I-013] | 90% | 100% | 90% | 90% | 90% | 80% | 80% |  | 80% |  |  | 90% | 90% | 0% | 0% | 0% | 0% | 0% |  |  | Pre-emergence activity against LOLRI (Lolium rigidum (LOLRI)): 80%; Pre-emergence activity against VIOTR (Viola tricolor (VIOTR)): 90%; Post-emergence activity against DIGSA [15]: 80%; pre-emergence activity against GLXMA (crop damage) (Glycine max (GLXMA) [17]; 80 g/ha): 0%
4 | C=CCOC(=O)CC1CCC(=O)N1Cc1cccc(F)c1F (racemic) [Example I-021] | 90% | 100% | 80% | 90% | 80% | 80% | 80% | 80% | 90% | 90% | 90% | 80% |  |  |  |  |  |  |  |  | Post-emergence activity against POLCO [22]: 80%
5 | CC(C)CNC(=O)CC1CCC(=O)N1Cc1cccc(F)c1F (racemic) [Example I-056] | 80% |  |  |  |  |  |  | 80% |  |  |  |  |  |  |  |  |  |  |  |  | Pre-emergence activity against VERPE (Veronica persica (VERPE)): 100%
6 | COC(=O)c1ccccc1NC(=O)CC1CCC(=O)N1Cc1cccc(F)c1F (racemic) [Example I-080] |  |  |  |  |  |  |  |  |  |  |  |  | 80% | 0% | 0% | 0% | 0% | 0% | 80% | 0% | Pre-emergence activity against SETVI (Setaria viridis (SETVI) [13]; 320 g/ha): 90%
7 | O=C(O)CC1CCC(=O)N1Cc1cc(F)cc(F)c1F (racemic) [Example I-201] |  |  |  |  |  |  |  |  |  |  |  |  | 90% |  |  |  | 0% |  | 100% | 0% | Pre-emergence activity against ALOMY ([1]; 320 g/ha): 100%; Pre-emergence activity against ECHCG ([4]; 320 g/ha): 100%; Pre-emergence activity against LOLRI (Lolium rigidum (LOLRI)): 80%; Pre-emergence activity against SETVI (Setaria viridis (SETVI) [13]; 320 g/ha): 100%; Post-emergence activity against ALOMY ([7]; 320 g/ha): 90%; Post-emergence activity against AVEFA (Avena fatua (AVEFA) [8]; 320 g/ha): 100%; Post-emergence activity against DIGSA [15]: 90%; Post-emergence activity against ECHCG ([10]; 320 g/ha): 90%; pre-emergence activity against ZEAMX (crop damage) (Zea Mays (ZEAMX) [18]; 80 g/ha): 0%; post-emergence activity against ZEAMX (crop damage) (Zea Mays (ZEAMX) [21]; 80 g/ha): 0%
8 | CC[C@H](C)[C@H](NC(=O)CC1CCC(=O)N1Cc1cccc(F)c1F)C(=O)O (single isomer, unassigned) [Example I-005] | 90% | 100% | 80% | 80% | 80% | 90% | 90% | 90% | 100% | 90% | 90% |  |  |  |  |  |  |  |  |  | Post-emergence activity against POLCO [22]: 80%
9 | Cn1ncnc1NC(=O)CC1CCC(=O)N1Cc1cccc(F)c1F (single isomer, unassigned) [Example I-075] |  |  |  |  |  |  | 100% |  |  |  |  |  |  | 0% | 0% | 0% | 0% | 0% | 90% | 0% | 
